IC50 data for 14 compounds are collected here from US20060106048A1, “Furoisoquinoline derivative and use thereof” (priority 2002, published 2006).

Molecules are shown by their SMILES. Counter-ions that a name gives are not always drawn.

For the experiment, the target named is T1, recombinant human brain-derived phosphodiesterase 4D3 (Homo sapiens, UniProt Q08499).
T1 construct: GST; made in house; host or cells: Escherichia coli BL21/pPDE4D3 (FERM BP-7075)
T1 sequence (Q08499 1-673 isoform Q08499-2): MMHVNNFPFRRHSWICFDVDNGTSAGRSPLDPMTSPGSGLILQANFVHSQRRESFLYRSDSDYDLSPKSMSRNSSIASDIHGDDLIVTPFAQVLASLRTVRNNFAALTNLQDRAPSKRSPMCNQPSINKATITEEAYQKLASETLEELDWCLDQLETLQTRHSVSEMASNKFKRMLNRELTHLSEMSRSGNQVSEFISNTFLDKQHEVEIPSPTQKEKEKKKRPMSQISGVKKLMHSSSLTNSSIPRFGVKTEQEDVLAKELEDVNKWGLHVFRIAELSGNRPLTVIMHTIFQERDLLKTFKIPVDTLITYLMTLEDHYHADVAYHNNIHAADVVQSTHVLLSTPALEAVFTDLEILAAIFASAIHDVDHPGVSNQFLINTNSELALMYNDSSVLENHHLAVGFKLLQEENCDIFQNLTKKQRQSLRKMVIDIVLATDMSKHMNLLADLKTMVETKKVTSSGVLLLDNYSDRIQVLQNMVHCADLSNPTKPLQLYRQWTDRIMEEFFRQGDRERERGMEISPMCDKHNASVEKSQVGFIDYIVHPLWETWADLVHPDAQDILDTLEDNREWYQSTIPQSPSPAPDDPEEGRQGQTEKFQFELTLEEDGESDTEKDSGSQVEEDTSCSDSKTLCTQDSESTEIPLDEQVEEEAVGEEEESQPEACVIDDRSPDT
Put plainly: Assay of phosphodiesterase IV-inhibiting action (SPA, [3H]cAMP). The class given is biochemical. Conditions: recombinant human brain-derived phosphodiesterase 4D3, [3H]cAMP, 30 minutes at 30° C.; activity without compound = 100%; read-out: Phosphodiesterase 4D inhibiting action (IC50). The text has this:
Assay of Phosphodiesterase IV-Inhibiting Action
(1) Expression of Recombinant Human Brain-Derived Phosphodiesterase 4D3 in Escherichia coli and Purification Thereof.
Using the Escherichia coli BL21/pPDE4D3 (FERM BP-7075) producing recombinant human brain-derived phosphodiesterase 4D3, a recombinant human brain-derived phosphodiesterase 4D3 was obtained. The expression and purification of E. coli were in accordance with the protocol attached to GST Gene Fusion System (Pharmacia).
(2) Assay of Phosphodiesterase IV-Inhibiting Action
To a 96-well plate (OPTI plate, Packard), 10 μl of a buffer solution [0.5 M Tris-HCl (pH 7.5), 83 mM MgCl2, 17 mM EGTA], 10 μl of the recombinant human brain-derived phosphodiesterase 4D3 (0.0034 mg/ml) obtained in Section (1) described above, 65 μl of Ultrapure water, 5 μl of an inhibitor sample and 10 μl of [^3H] cAMP were added and reacted for 30 minutes at 30° C. After completing the reaction, 50 μl of SPA beads solution [18 mg/ml Yttrium silicate beads, 18 mM ZnSO4] was added thereto, and the mixture was allowed to stand at room temperature for about 20 minutes. The radioactivity was counted using a scintillation counter (Topcount, Packard). Inhibiting activity of the compound against recombinant human brain-derived phosphodiesterase 4D3 was calculated, based on that enzymatic activity under absence of the compound was 100%.
As for `CCOc1cc2c(c3c1OC(C)(C)C3)C(c1ccc(C(=O)NC)c(NC(=O)c3ccccc3)c1)=NC(C)(C)C2` [Example 57, 2-(Benzoylamino)-4-(6-ethoxy-3,4,8,9-tetrahydro-3,3,8,8-tetramethylfuro[2,3-h]isoquinolin-1-yl)-N-methylbenzamide], the IC50 was 1.63 nM. As for `CCOc1cc2c(c3c1OC(C)(C)C3)C(c1ccc(C(C)(C)C(=O)O)cc1)=NC(C)(C)C2` [Example 118, 4-(6-Ethoxy-3,4,8,9-tetrahydro-3,3,8,8-tetramethylfuro[2,3-h]isoquinolin-1-yl)-α,α-dimethylbenzeneacetic acid hydrochloride hydrate], the IC50 is 11.5 nM. With `CCOc1cc2c(c3c1OC(C)(C)C3)C(c1ccc(C#N)c(NCc3ccccc3)c1)=NC(C)(C)C2` [Example 74, 4-(6-Ethoxy-3,4,8,9-tetrahydro-3,3,8,8-tetramethylfuro[2,3-h]isoquinolin-1-yl)-2-[(phenylmethyl)amino]benzonitrile] the figure was 1.71 nM; with `CCOc1cc2c(c3c1OC(C)(C)C3)C(c1ccc(C(=O)OC)c(NC(=O)c3ccccn3)c1)=NC(C)(C)C2` [Example 21, Methyl 4-(6-ethoxy-3,4,8,9-tetrahydro-3,3,8,8-tetramethylfuro[2,3-]isoquinolin-1-yl)-2-[(2-pyridinylcarbonyl)amino]benzoate], 1.89 nM. With `CCOc1cc2c(c3c1OC(C)(C)C3)C(c1ccc(/C=C/C(=O)O)c(OC)c1)=NC(C)(C)C2` [Example 85, (E)-3-[4-(6-Ethoxy-3,4,8,9-tetrahydro-3,3,8,8-tetramethylfuro[2,3-h]isoquinolin-1-yl)-2-methoxyphenyl]-2-propenoic acid] the figure was 5.5 nM. The value for `CCOc1cc2c(c3c1OC(C)(C)C3)C(c1ccc(CC(=O)O)c(NC(=O)c3ccccn3)c1)=NC(C)(C)C2` [Example 124, 4-(6-Ethoxy-3,4,8,9-tetrahydro-3,3,8,8-tetramethylfuro[2,3-h]isoquinolin-1-yl)-2-[(2-pyridinylcarbonyl)amino]benzeneacetic acid] was 0.637 nM.

Regarding `CCOc1cc2c(c3c1OC(C)(C)C3)C(c1ccc(C(C)(C)C(N)=O)cc1)=NC(C)(C)C2` [Example 120, 4-(6-Ethoxy-3,4,8,9-tetrahydro-3,3,8,8-tetramethylfuro[2,3-h]isoquinolin-1-yl)-α,α-dimethylbenzeneacetamide], the IC50 came to 3.5 nM. On to `CCOc1cc2c(c3c1OC(C)(C)C3)C(c1ccc(C(=O)OC)c(NC(C)=O)c1)=NC(C)(C)C2` [Example 17, Methyl 2-(acetylamino)-4-(6-ethoxy-3,4,8,9-tetrahydro-3,3,8,8-tetramethylfuro[2,3-h]isoquinolin-1-yl)benzoate], for which the IC50 was determined as 4.01 nM. The value for `CCOc1cc2c(c3c1OC(C)(C)C3)C(c1ccc(COCC(=O)OC)cc1)=NC(C)(C)C2` [Example 94, Methyl [[4-(6-ethoxy-3,4,8,9-tetrahydro-3,3,8,8-tetramethylfuro[2,3-h]isoquinolin-1-yl)phenyl]methoxy]acetate hydrochloride] was 3.27 nM; that for `CCOc1cc2c(c3c1OC(C)(C)C3)C(c1ccc(C(N)=O)c(NC(=O)c3ccccn3)c1)=NC(C)(C)C2` [Example 23, N-[2-(Aminocarbonyl)-5-(6-ethoxy-3,4,8,9-tetrahydro-3,3,8,8-tetramethylfuro[2,3-h]isoquinolin-1-yl)phenyl]-2-pyridinecarboxamide] was 0.756 nM. In the case of `CCOc1cc2c(c3c1OC(C)(C)C3)C(c1ccc(C(=O)O)c(NC(=O)c3ccc4ccccc4n3)c1)=NC(C)(C)C2` [Example 30, 4-(6-Ethoxy-3,4,8,9-tetrahydro-3,3,8,8-tetramethylfuro[2,3-h]isoquinolin-1-yl)-2-[(2-quinolinylcarbonyl)amino]benzoic acid], the IC50 worked out at 0.761 nM. The value for `CCNc1cc(C2=NC(C)(C)Cc3cc(OCC)c4c(c32)CC(C)(C)O4)ccc1C(=O)O` [Example 50, 4-(6-Ethoxy-3,4,8,9-tetrahydro-3,3,8,8-tetramethylfuro[2,3-h]isoquinolin-1-yl)-2-(ethylamino)benzoic acid] was 8.4 nM. The value for `CCOc1cc2c(c3c1OC(C)(C)C3)C(c1ccc(COCC(=O)O)cc1)=NC(C)(C)C2` [Example 95, [[4-(6-Ethoxy-3,4,8,9-tetrahydro-3,3,8,8-tetramethylfuro[2,3-h]isoquinolin-1-yl)phenyl]methoxy]acetic acid hydrochloride] was 10.9 nM. The value for `CCOc1cc2c(c3c1OC(C)(C)C3)C(c1ccc(C(=O)O)c(NCc3ccccc3)c1)=NC(C)(C)C2` [Example 6, 4-(6-Ethoxy-3,4,8,9-tetrahydro-3,3,8,8-tetramethylfuro[2,3-h]isoquinolin-1-yl)-2-[(phenylmethyl)amino]benzoic acid] was 0.566 nM.
